This is an account of results in patent US20060178387A1, “Combined treatment with capecitabine and an epidermal growth factor receptor kinase inhibitor” (priority 2005, published 2006).

In general, MTD refers to the highest dose tested that stayed within the study's limit of toxicity.

In data set [1] the test system is LoVo (human colon cancer) cells. The data set can be described thus: Tumor-growth inhibition in vivo, LoVo xenograft in BALB/c nu/nu mice. The settings on record: for tumor-growth inhibition: LoVo; for tumor inhibition rate: day 15, after 14 days' treatment.
From the text: (§1) Suspensions of LoVo (5×10^6 cells/mouse), HT-29 (5 x 10^6 cells/mouse) and A431 (8×10^6 cells/mouse) cells were inoculated s.c. into the right flank of the mice. A piece of MAXF401 was transplanted s.c. into the right flank of female mice. A suspension of KPL-4 cells (1×10^7 cells/mouse) was orthotopically transplanted into the second mammary fat pad of female mice. Several weeks after tumor inoculation, mice were selected and randomized into control and treatment groups. Experiments were started when tumor volumes reached approximately 0.1-0.3 cm^3. […] The tumor volumes were estimated using the equation V=ab^2/2, where a and b are tumor length and width, respectively. Gastrointestinal (GI) toxicity was estimated by observing the feces and by detecting fecal occult blood using a test kit (Shionogi Pharma Co., Osaka, Japan). Peripheral blood leukocyte counts were performed to evaluate bone marrow toxicity.
Data set [2] concerns KPL-4 (human inflammatory breast cancer) cells. Put plainly: Tumor-growth inhibition in vivo, KPL-4 orthotopic xenograft in BALB/c nu/nu mice.
From the text: as §1
A short description of data set [3]: Tolerability (body weight, deaths, MTD) in tumor-bearing mice. Type of data set: in vivo, BALB/c nu/nu mice. The settings on record: for lethality: erlotinib 250 mg/kg/day; for toxic deaths: erlotinib 50-125 mg/kg/day for 2 weeks. The text has this:
Male and female, 4-6-weeks old BALB/c nu/nu mice were obtained from Nippon Clea (Tokyo, Japan). All animals were allowed to acclimatize and recover from shipping-related stress for 1 week prior to the study. The health of the mice was monitored daily by observation.

For data set [4], the system named is A-431 (human vulval epidermal cancer) cells. The data set can be described thus: Tumor-growth inhibition in vivo, A-431 xenograft in BALB/c nu/nu mice. Particulars: erlotinib 100 mg/kg/day (80% of MTD) orally once daily for 14 days.
From the text: as §1
In data set [5] the test system is HT-29 (human colon cancer) cells. The data set can be described thus: Tumor-growth inhibition in vivo, HT-29 xenograft in BALB/c nu/nu mice. Particulars: erlotinib 100 mg/kg/day orally once daily for two weeks, day 15.
From the text: as §1
Data set [6] has as its system MAXF401 (human breast cancer) cells. Put plainly: Tumor-growth inhibition in vivo, MAXF401 xenograft in BALB/c nu/nu mice. The settings on record: erlotinib 100 mg/kg/day orally once daily for two weeks, day 15.
From the text: as §1
Setting [7] is: erlotinib 100 mg/kg/day (80% of MTD) orally once daily for 14 days, day 15.
Where [8] appears, read: erlotinib 100 mg/kg/day (80% of MTD) orally once daily for 14 days, day 15, listed as erlotinib.

For the compound `CCCCCOC(=O)Nc1nc(=O)n([C@@H]2O[C@H](C)[C@@H](O)[C@H]2O)cc1F` [Capecitabine, capecitabine], the tumor-growth inhibition in data set [1] (capecitabine at the MTD, 539 mg/kg) worked out at 56%; in data set [2] (capecitabine 90 mg/kg (67% of MTD for this model) orally once daily for 14 days, day 15), 36%.
Regarding `C#Cc1cccc(Nc2ncnc3cc(OCCOC)c(OCCOC)cc23)c1` [Erlotinib, [6,7-bis(2-methoxyethoxy)-4-quinazolin-4-yl]-(3-ethynylphenyl)amine], the MTD at 2 weeks in data set [3] (BALB/c nu/nu, mouse, in vivo, oral, read-out: maximum tolerated dose (MTD)) worked out at 125 mg/kg/day. In addition, the lethality entry in data set [3] (mice bearing A431 tumors (data not shown)) and in data set [3] (mice bearing LoVo tumors (data not shown)) was “lethal” each time. Besides, the toxic deaths result was “no deaths recorded” in data set [3] (mice bearing LoVo tumors) and “No toxic deaths were observed” in data set [3] (mice bearing LoVo tumors, listed as erlotinib). Also, the “mean body weight maintained” value in data set [3] (mice bearing LoVo tumors, erlotinib 50-125 mg/kg/day, all groups) is given as at least 80%. For the same compound, the antitumor activity result in data set [1] (LoVo dose-response study, erlotinib 50 mg/kg orally once daily for 2 weeks) is “did not show significant antitumor activity”. Moreover, the tumor inhibition rate in data set [1] (LoVo dose-response study, erlotinib 100 mg/kg orally once daily) is 62%; in data set [1] (LoVo dose-response study, erlotinib 125 mg/kg orally once daily), 85%. Further, the tumor-growth inhibition in data set [1] (setting [7]) is on record as 74%; in data set [1] (setting [8]), 74%; in data set [4] (day 15), 85%; in data set [4] (day 15, listed as erlotinib) it was 85%; in data set [2] (setting [7]), 71%; in data set [2] (setting [8]), 71%. Further, the values for the tumor-growth inhibition in data set [5] and in data set [6] were 46% and 20%, respectively. Also, the “inhibition of tumor growth” value in data set [2] (single-agent erlotinib 75 mg/kg (data not shown)) worked out at 45%.
